Measured values from US20020151876A1, “Devices and methods for management of bone density” (priority 2001, published 2002).

Key:
[1] = system: patients with Crohn's disease; conditions: cited from earlier work
[2] = system: tumor burden in bone; conditions: two separate studies, relatively small number of patients; cited from earlier work
[3] = system: rabbit model; assay: local response to subcutaneous injection, skin reaction scoring (erythema, eschar, edema, necrosis); type: in vivo
Experimental: A test was performed to evaluate the local response to pamidronate sodium following subcutaneous injection into a rabbit model.
The pamidronate sodium was reconstituted with 10 mL of phosphate buffered saline (PBS) to achieve a concentration of 9 mg/mL. The 9 mg/mL. solution was then diluted to achieve a concentration of 0.9 mg/mL.
On the day of the test, the fur on the back of each animal was removed on both sides of the spinal column with electric clippers. A 0.1 mL portion of two concentrations of the sample solution was injected subcutaneously at each of three sites along the spinal column of each of two rabbits. A 0.1 mL portion of PBS was injected subcutaneously at three sites along the other side of the spinal column of the same two rabbits. […] Scoring was at 24 hours, 48 hours, and 72 hours. All of the animals were observed daily for signs of ill health.
The injection sites were examined and scored for any tissue reactions, with results scored according to Table 1.
The average erythema and edema scores for each test article and controls are determined at each scoring interval (24, 48, and 72 hours) for each rabbit.

[4] = system: patients; conditions: long-term use; cited from earlier work
[5] = system: osteoblast-like cells; conditions: cited from earlier work

SMILES: NCCCC(O)(P(=O)(O)O)P(=O)(O)O [alendronate]
- safety and tolerability [1]: safe and well tolerated

SMILES: O=P(O)(O)C(Cl)(Cl)P(=O)(O)O [clodronate]
- tumor burden in bone [2]: decreases tumor burden in bone

SMILES: NCCC(O)(P(=O)(O)O)P(=O)(O)O [pamidronate sodium]
- injection site reaction (in words) ([3]; any of the 0.9 mg/mL sites): no evidence of erythema or edema
- injection site reaction (in words) ([3]; one 9 mg/mL site on one rabbit, 48 and 72 hours): Slight erythema
- injection site reaction (in words) ([3]; one of the 9 mg/mL sites, 24 hours, both animals): Slight erythema
- signs of ill health, daily observation ([3]; rabbits, throughout the test period (72 hours)): remained healthy

SMILES: NC(=O)N1c2ccccc2C=Cc2ccccc21 [carbamazepine]
- bone mass in patients [4]: decrease bone mass
- proliferation of osteoblast-like cells [5]: directly suppress proliferation

SMILES: O=C1NC(=O)C(c2ccccc2)(c2ccccc2)N1 [phenytoin]
- bone mass in patients [4]: decrease bone mass
- proliferation of osteoblast-like cells [5]: directly suppress proliferation
